Reference: paper PMC4865847, “Putative histidine kinase inhibitors with antibacterial effect against multi-drug resistant clinical isolates identified by in vitro and in silico screens” (Scientific Reports, 2016)
≈ marks a conversion by molar mass, not a printed value. Where two headings read alike, the source gives them in different places.

Tests used:
Hemolysis assay = type: cell-based; conditions: human
Description: Hemolytic activity against human erythrocytes taken from a healthy donor was measured as previously described. The hemolysis experiments were carried out in accordance with the guidelines of the United Arab Emirates University (UAEU) Research Ethics Review Board. All experimental protocols were approved by the Research Ethics Review Board of UAEU and informed consent was obtained from all donors.

Pseudomonas aeruginosa = test: Antibacterial susceptibility testing (MIC), P. aeruginosa; type: cell-based; conditions: Pseudomonas aeruginosa, ATCC27853; strain ATCC 27853
Description: (§1) Bacterial strains used in this study for antibacterial susceptibility testing (Table S5) were propagated using standard microbiological procedures. Minimal inhibitory concentrations (MICs) were determined following a standard double-dilution method. MICs were recorded as the lowest concentration of the compound where no visible growth was observed. After plating the dilutions around the MIC or growing them in fresh MH media, minimal bactericidal concentration (MBC) was recorded as the lowest concentration of the compound at which no colonies were formed or no growth was observed, respectively. For S. pneumoniae MICs were determined by adapting the standard double-dilution method to anaerobic conditions and of this microorganism (use of Todd Hewitt Yeast extract with 200 U/mL of catalase and continuous monitoring of growth).

Acinetobacter baumannii = test: Antibacterial susceptibility testing (MIC), A. baumannii; type: cell-based
Description: as §1

Streptococcus suis = test: Antibacterial susceptibility testing (MIC), S. suis; type: cell-based; conditions: Streptococcus suis, read-out: MIC Streptococcus suis 3881/S10, strain 3881/S10
Description: as §1

Streptococcus pneumoniae = test: Antibacterial susceptibility testing (MIC), S. pneumoniae; type: cell-based; conditions: strain 49619
Description: as §1

E. coli PhoR (PhoR^E) = biological target: T1, E. coli PhoR (PhoR^E) (Escherichia coli, UniProt P08400); test: In vitro autophosphorylation kinase assay with γ-32P-ATP, PhoR^E; type: biochemical; conditions: for IC50: autophosphorylation, one time point (30 sec), 10% DMSO, read-out: IC50 PhoR^E
T1 construct: The catalytic portion (DHp and CA domain) of E. coli PhoR (PhoR^E); made in house; host or cells: E. coli RIL
T1 sequence (P08400 210-425): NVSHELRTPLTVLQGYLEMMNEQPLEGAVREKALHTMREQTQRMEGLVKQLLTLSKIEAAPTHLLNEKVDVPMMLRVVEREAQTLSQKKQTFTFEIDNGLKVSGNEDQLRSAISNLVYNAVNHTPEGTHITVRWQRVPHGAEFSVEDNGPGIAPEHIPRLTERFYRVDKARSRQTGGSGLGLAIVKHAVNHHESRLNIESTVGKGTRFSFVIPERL
Outline: (§2)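 Histidine kinase (0.12 mg/ml, ≈4 μM) incubated with up to 20 mM fragment in 50 mM Tris HCl pH 8.5, 50 mM KCl, 5 mM MgCl2, 0.5 mM EDTA, 0.1 mM DTT; started with 0.1 μCi/μl γ-32P-ATP (0.03–0.06 μM ATP final). Phosphoprotein quantified by SDS-PAGE and phosphor-imaging, curve-fitted; DMSO controls.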

Klebsiella pneumoniae = test: Antibacterial susceptibility testing (MIC), K. pneumoniae; type: cell-based; conditions: for MIC: Klebsiella pneumoniae, ATCC700603, strain ATCC 700603
Description: as §1

[1] = test system: Staphylococcus epidermidis; test: Antibacterial susceptibility testing (MIC/MBC), S. epidermidis; type: cell-based; conditions: Staphylococcus epidermidis; for MBC: DSM20044, strain DSM 20044
Description: (§3) Minimal inhibitory concentrations (MICs) were determined following a standard double-dilution method. […] For S. pneumoniae MICs were determined by adapting the standard double-dilution method to anaerobic conditions and of this microorganism (use of Todd Hewitt Yeast extract with 200 U/mL of catalase and continuous monitoring of growth).

Escherichia coli = test: Antibacterial susceptibility testing (MIC/MBC), E. coli; type: cell-based
Description: as §3

[2] = test system: Stenotrophomonas maltophilia; test: Antibacterial susceptibility testing (MIC), S. maltophilia; type: cell-based; conditions: clinical isolate B32/1, read-out: MIC S. maltophilia B32/1
Description: as §1

Staphylococcus aureus = test: Antibacterial susceptibility testing (MIC/MBC), S. aureus; type: cell-based; conditions: Staphylococcus aureus; for MBC: DSM20231, strain DSM 20231, read-out: MBC S. aureus DSM 20231
Description: as §3

S. pneumoniae WalK = biological target: T2, S. pneumoniae WalK (Streptococcus pneumoniae, UniProt Q8DPL8); test: In vitro autophosphorylation kinase assay with γ-32P-ATP, WalK; type: biochemical; conditions: for IC50: autophosphorylation, one time point (30 sec), 10% DMSO, read-out: IC50 WalK
T2 construct: WalK (amino acids from 208 to 449); N-terminal His6-3C site of vector pOPINF (own knowledge of the vector); made in house; host or cells: E. coli RIL
T2 sequence (Q8DPL8 208-449): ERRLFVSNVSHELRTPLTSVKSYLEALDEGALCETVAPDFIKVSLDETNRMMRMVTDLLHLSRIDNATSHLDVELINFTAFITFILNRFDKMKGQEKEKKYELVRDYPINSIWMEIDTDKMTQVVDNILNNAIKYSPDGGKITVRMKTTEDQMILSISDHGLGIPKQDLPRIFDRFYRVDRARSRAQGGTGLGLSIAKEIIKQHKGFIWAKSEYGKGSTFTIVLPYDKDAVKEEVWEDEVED
Outline: as §2

[3] = Solubility in kinase buffer; type: physicochemical; conditions: kinase buffer with 10% DMSO, pH 8.5, aqueous with cosolvent or surfactant or cyclodextrin, kinetic from dmso stock; kinase buffer in the presence of 10% DMSO; read-out: concentration above which not soluble / reduced solubility in kinase buffer
[4] = MDR clinical isolate NM8, read-out: MIC A. baumannii NM8
[5] = clinical isolate T7/3, read-out: MIC S. epidermidis T7/3
[6] = clinical isolate T37/8, read-out: MIC S. epidermidis T37/8
[7] = clinical isolate T6119, read-out: MIC S. epidermidis T6119
[8] = strain RP62A (biofilm producer), read-out: MIC S. epidermidis RP62A
[9] = strain RP62A/1 (non-biofilm producer), read-out: MIC S. epidermidis RP62A/1
[10] = Escherichia coli, ATCC25276, strain ATCC 25276, read-out: MIC E. coli ATCC 25276
[11] = Escherichia coli, strain CFT 073, read-out: MIC E. coli CFT 073
[12] = ATCC reference strain 25293, read-out: MIC S. aureus 25293
[13] = MRSA clinical isolate 127/08, read-out: MIC S. aureus 127/08
[14] = MRSA clinical isolate 145/08, read-out: MIC S. aureus 145/08
[15] = MRSA clinical isolate 274/08, read-out: MIC S. aureus 274/08
[16] = MRSA, MRSA clinical isolate S908, read-out: MIC S. aureus S908
[17] = MRSA, MRSA clinical isolate T4/6, read-out: MIC S. aureus T4/6
[18] = MRSA, MRSA clinical isolate V4180, read-out: MIC S. aureus V4180
[19] = 2 mM, 30 sec, compared to negative control

Nc1nc(-c2ccccc2Cl)cs1 [F1.6] gave an HC50 (Hemolysis assay) greater than 500 µg/mL, an MIC (Pseudomonas aeruginosa) greater than 500 µg/mL and an MIC (Acinetobacter baumannii; [4]) greater than 500 µg/mL. It also gave an MIC (Streptococcus suis) greater than 500 µg/mL, an MIC (Streptococcus pneumoniae) of 256 µg/mL (≈ 1220 µM) and an IC50 (E. coli PhoR (PhoR^E)) greater than 2 mM. For the same compound, the MIC (Klebsiella pneumoniae) was greater than 500 µg/mL, the MBC [1] was 500 µg/mL (≈ 2370 µM) and the MIC [1, 5] was 125 µg/mL (≈ 593 µM). The MIC [1, 6] was greater than 500 µg/mL, the MIC [1, 7] was greater than 500 µg/mL and the MIC [1, 8] was greater than 500 µg/mL. It also gave an MIC [1, 9] greater than 500 µg/mL, an MIC ([1]; summary over clinical isolates, read-out: MICs for S. epidermidis clinical isolates) of 125 µg/mL (≈ 593 µM) and an MIC (Escherichia coli; [10]) greater than 500 µg/mL. The MIC (Escherichia coli; [11]) was greater than 500 µg/mL, the MIC [2] was greater than 500 µg/mL and the MIC (Staphylococcus aureus; [12]) was 250 µg/mL (≈ 1190 µM). The MBC (Staphylococcus aureus) was 250 µg/mL (≈ 1190 µM), the MIC (Staphylococcus aureus; [13]) was 250 µg/mL (≈ 1190 µM) and the MIC (Staphylococcus aureus; [14]) was 250 µg/mL (≈ 1190 µM). For the same compound, the MIC (Staphylococcus aureus; [15]) was 500 µg/mL (≈ 2370 µM), the MIC (Staphylococcus aureus; [16]) was 500 µg/mL (≈ 2370 µM) and the MIC (Staphylococcus aureus; [17]) was 250 µg/mL (≈ 1190 µM). The MIC (Staphylococcus aureus; [18]) was greater than 500 µg/mL, the MIC (Staphylococcus aureus; MRSA, summary over strains, read-out: MICs for the MRSA strains and S. aureus 25293) was 125 to 500 µg/mL (≈ 593 to 2370 µM) and the inhibition at 2000 µM (S. pneumoniae WalK; [19]) was greater than 50%. It also gave an IC50 (S. pneumoniae WalK) of less than 2 mM.
Work on Nc1nccc(Nc2ccc(Br)cc2)n1 [F1.8] yielded an HC50 (Hemolysis assay) greater than 500 µg/mL, an MIC (Pseudomonas aeruginosa) of 500 µg/mL (≈ 1890 µM) and an MIC (Acinetobacter baumannii; [4]) of 125 µg/mL (≈ 471 µM). The MIC (Acinetobacter baumannii; MDR clinical isolate NM35, read-out: MIC A. baumannii NM35) was 125 µg/mL (≈ 471 µM), the MIC (Acinetobacter baumannii; MDR clinical isolate NM75, read-out: MIC A. baumannii NM75) was 250 µg/mL (≈ 943 µM) and the MIC (Acinetobacter baumannii; MDR clinical isolate NM109, read-out: MIC A. baumannii NM109) was 125 µg/mL (≈ 471 µM). It also gave an MIC (Acinetobacter baumannii; MDR clinical isolate NM124, read-out: MIC A. baumannii NM124) of 125 µg/mL (≈ 471 µM), an MIC (Acinetobacter baumannii; summary over strains, read-out: MICs for A. baumannii strains) of 125 to 250 µg/mL (≈ 471 to 943 µM) and an MIC (Streptococcus suis) of 250 µg/mL (≈ 943 µM). For the same compound, the solubility [3] was no more than 1000 µM, the MIC (Streptococcus pneumoniae) was 128 µg/mL (≈ 483 µM) and the inhibition at 2000 µM (E. coli PhoR (PhoR^E); [19]) was greater than 50%. For the same compound, the IC50 (E. coli PhoR (PhoR^E)) was no more than 1 mM, the MIC (Klebsiella pneumoniae) was 125 to 250 µg/mL (≈ 471 to 943 µM) and the “MIC K. pneumoniae ATCC700603” value (Klebsiella pneumoniae; strain ATCC 700603) was 250 µg/mL (≈ 943 µM). The MBC [1] was 125 µg/mL (≈ 471 µM), the MIC [1, 5] was 31 µg/mL (≈ 117 µM) and the MIC [1, 6] was 500 µg/mL (≈ 1890 µM). For the same compound, the MIC [1, 7] was 250 µg/mL (≈ 943 µM), the MIC [1, 8] was 500 µg/mL (≈ 1890 µM) and the MIC [1, 9] was 250 µg/mL (≈ 943 µM). For the same compound, the MIC ([1]; summary over strains, read-out: MICs for the S. epidermidis strains) was 31 to 500 µg/mL (≈ 117 to 1890 µM), the MIC (Escherichia coli; [10]) was 125 to 250 µg/mL (≈ 471 to 943 µM) and the MBC (Escherichia coli; Escherichia coli, strain CFT 073, read-out: MBC E. coli CFT 073) was 500 µg/mL (≈ 1890 µM). The MIC (Escherichia coli; [11]) was less than 250 µg/mL, the MIC (Escherichia coli; Escherichia coli, summary over E. coli strains, read-out: antibacterial effects (MIC) against E. coli) was no less than 250 µg/mL and the “MIC E. coli ATCC 25276” value (Escherichia coli; strain ATCC 25276) was 250 µg/mL (≈ 943 µM). For the same compound, the “MIC E. coli CFT 073” value (Escherichia coli; strain CFT 073) was 250 µg/mL (≈ 943 µM), the MIC [2] was greater than 500 µg/mL and the MIC (Staphylococcus aureus; [12]) was 250 µg/mL (≈ 943 µM). The MBC (Staphylococcus aureus) was 250 µg/mL (≈ 943 µM), the MIC (Staphylococcus aureus; [13]) was 250 µg/mL (≈ 943 µM) and the MIC (Staphylococcus aureus; [14]) was 250 µg/mL (≈ 943 µM). For the same compound, the MIC (Staphylococcus aureus; [15]) was 250 µg/mL (≈ 943 µM), the MIC (Staphylococcus aureus; [16]) was 250 µg/mL (≈ 943 µM) and the MIC (Staphylococcus aureus; [17]) was 250 µg/mL (≈ 943 µM). For the same compound, the MIC (Staphylococcus aureus; [18]) was 250 µg/mL (≈ 943 µM), the MIC (Staphylococcus aureus; MRSA, summary over strains, read-out: MICs for the S. aureus reference strains and the MRSA strains) was 125 to 250 µg/mL (≈ 471 to 943 µM) and the IC50 (S. pneumoniae WalK) was greater than 2 mM.
